Assay [1] addresses T1, IDI (isopentenyl diphosphate isomerase from Saccharomyces cerevisiae) (Saccharomyces cerevisiae, UniProt P15496, Y195F/W256C, form not given).
T1 construct: gene IDI1
The note with it: 50 mM MOPS, 20 mM MgCl2, 5% glycerol, pH 7.5, 30 °C (activity assay); substrate range printed as 1–1000 mmol/L. The source says:
(§1) GC of isoprene released from DMAPP by acid and heat; double-reciprocal plot on IDI (isopentenyl diphosphate isomerase from Saccharomyces cerevisiae)

Assay [2] has as its target T2, IDI (isopentenyl diphosphate isomerase from Saccharomyces cerevisiae) (Saccharomyces cerevisiae, UniProt P15496).
T2 construct: gene IDI1
The note with it: 50 mM MOPS, 20 mM MgCl2, 5% glycerol, pH 7.5, 30 °C (activity assay); substrate range printed as 1–1000 mmol/L.
Text: as §1

In publication PMC5925831, “Enhancement of the catalytic activity of Isopentenyl diphosphate isomerase (IDI) from Saccharomyces cerevisiae through random and site-directed mutagenesis” (Microbial Cell Factories, 2018) one finds Km data, which are given here for one compound.

The term Km denotes the concentration of substrate that gives half-maximal velocity.

T1 sequence (P15496 2-288 Y195F/W256C, form open): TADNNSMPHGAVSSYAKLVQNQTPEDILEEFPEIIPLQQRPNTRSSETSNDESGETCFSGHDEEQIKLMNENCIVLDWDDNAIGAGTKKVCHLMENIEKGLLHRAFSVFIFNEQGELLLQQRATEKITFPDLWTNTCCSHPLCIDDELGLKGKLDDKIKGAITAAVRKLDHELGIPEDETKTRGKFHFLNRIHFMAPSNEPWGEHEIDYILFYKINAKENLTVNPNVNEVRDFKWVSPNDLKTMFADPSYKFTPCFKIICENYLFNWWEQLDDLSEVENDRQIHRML
T2 sequence (P15496 2-288): as the sequence (P15496 2-288 Y195F/W256C, form open) above, with F194Y, C255W counted along it

Consider `C=C(C)CCO[P@@](=O)(O)OP(=O)(O)O` [isopentenylpyrophosphate], for which the Km in assay [1] is 37.6 ± 0.17 µM; in assay [2] it was 41.5 ± 0.39 µM.
